From patent publication US8114986B2, “Analogous compounds of 6-thioguanosine triphosphate, their use in medical fields and processes for their preparation” (Giuliani International Limited, priority 2005, dated 2012)

What was measured:
caspase-3/7 in T cells = assay: Caspase-Glo 3/7 Assay in stimulated CD4+ T cells; assay type: cell-based, human; conditions: day three of culture; untreated cells = 100%; three experiments; FIG. 8
Description: FIG. 8: Caspase-graph: Luminescence value of untreated cells was defined as 100% Caspase activity. Due to their specific luminescence value the caspase activity of treated cells were calculated accordingly. Induction of Caspase activityx[%]=Caspase activityx[%]−Caspase activityuntreated[%]. Means±SEM (Standart Error of the Mean=Standard deviation/radical(n)) of three different experiments are presented.
In addition, an alternative method was performed for screening of group-D derivatives (FIG. 8). It was decided to analyse the activity of caspase-3/7 in T cells, which were treated with group-D derivatives. As compared to AnnexinV/PI staining this new method might have some advantages: • It is an easier protocol. Therefore there are fewer possibilities for individual errors. • Increased activity of caspase-3 is very specific for apoptosis. Therefore this method is very sensitive for the detection of apoptosis. There is no interfering influence of necrotic cells. • The measurement is done in duplicate. In this way there is an internal control.
The Caspase-Glo 3/7 Assay (Promega™) was used. This assay is based on a caspase dependent luminescent signal. Protocol: CD4^+ T cells were isolated from human blood by magnetic beads (Dynal). T lymphocytes were stimulated in complete RPMI-1640 medium (RPMI-1640+10% FCS+100 U/ml Penicillin/Streptomycin+3 mM L-Glutamin) for 3 days with coated antibodies to CD3 (0.04 μg/ml) and soluble CD28 antibodies (PharMingen™; 1 μg/ml) plus IL-2 (R & D Systems™, Wiesbaden, Germany; 40 U/ml) in 96-well plates. Cells were treated with different group-D derivatives or were left untreated. At day three of culture Caspase-3/7 Assay was performed. 25 μl of Caspase-Glo 3/7 reagent was added to each well. Probes were mixed gently for 2 minutes and incubated at room temperature for 30 minutes. Finally 100 μl of each probe were transferred to a white walled 96-well luminometer plate and analysed in a plate-reading luminometer. The added reagent contains a specific substrate of caspase-3 and caspase-7. Cleavage of this substrate by activated caspase-3 results in luciferase reaction. Luminescence is proportional to the amount of caspase activity present (FIG. 8)

human CD4+ T Lymphocytes = assay: Induction of apoptosis in CD3/CD28 costimulated T lymphocytes, annexin V / propidium iodide FACS; assay type: cell-based; conditions: for induction of apoptosis: 5 μM added at day 0, CD3/CD28 costimulated T lymphocytes; for induction of apoptosis / induction of apoptosis compared with azathioprine or 6-mercaptopurine mediated induction: 3, 4 or 5 days, FIGS. 2-4; for induction of apoptosis compared with azathioprine or 6-mercaptopurine mediated induction: 5 μM; for apoptosis induction: FIGS. 5 and 6, at least three experimental data sets, primary T cells of different donors
Description: Human peripheral blood mononuclear cells (PBMC) from 4 buffycoats were isolated using Ficoll-Hypaque gradients. PBMC were further purified using CD4 monoclonal antibodies attached to immunomagnetic microbeads according to the protocol provided by the manufacturer (Miltenyi Biotec). […] Azathioprine, 6-Mercaptopurine, V1, V2, V3, V4 or V5 were added to the T cell cultures at day 0 at a final concentration of 5 μM. To determine induction of apoptosis in these T lymphocytes, cells were analyzed by FACS. For FACS analysis, apoptotic cells were detected by staining with annexin V and propidium iodide using the Annexin V FITC Apoptosis Detection Kit I (PharMingen). In brief, T cells were washed twice in PBS, and the pellet was resuspended in annexin V binding buffer (PharMingen) at a concentration of 10^6 cells per milliliter. Annexin V FITC and propidium iodide were added (5 μl of each per 10^5 cells), Samples were gently mixed and incubated for 15 minutes at room temperature in the dark before FACS analysis.
• Annexin-positive, propidium iodide-negative cells (black bars) present the rate of early apoptotic cells. Annexin-positive, propidium iodide-positive cells (white bars) present late apoptotic or necrotic cells. • Induction of apoptosis=(Rate of apoptotic cells after indicated treatment)−(Rate of apoptosis of untreated cells) • V1, V2 and V3 were tested in 4 independent experiments. V4 and V5 were tested in 2 independent experiments.

Rac1 = Rac1 (Homo sapiens, UniProt P63000); conditions: cited from earlier work
Solubility in water = assay type: physicochemical

Molecule	induction of caspase activity (caspase-3/7 in T cells)	induction of apoptosis (human CD4+ T Lymphocytes)	other results
2′,3′-EDA-6-Thio-GTP [05B-0]	very effective	able to induce apoptosis	induction of apoptosis compared with azathioprine or 6-mercaptopurine mediated induction (human CD4+ T Lymphocytes): more pronounced and appeared earlier; apoptosis induction (human CD4+ T Lymphocytes): strongest candidate drug for apoptosis induction
Nc1nc2c(ncn2[C@@H]2O[C@H](COP(=O)(O)OP(=O)(O)OP(=O)(O)O)[C@@H](O)[C@H]2O)c(=S)[nH]1 [6-Thio-GTP, 6-thioguanosine triphosphate]	able to induce caspase activity	–	affinity to Rac1, fold less in comparison with GTP (Rac1): 20 fold; apoptosis induction (human CD4+ T Lymphocytes): on average was not able to induce apoptosis
Cn1ccc(NC(=O)[C@@H]2OC3C(COP(=O)(O)OP(=O)(O)OP(=O)(O)O)OC(n4cnc5c(=S)[nH]c(N)nc54)C3O2)n1 (some centres unmarked) [06D-13]	promising	–	–
Cc1cc(CNC(=O)[C@@H]2OC3C(COP(=O)(O)OP(=O)(O)OP(=O)(O)O)OC(n4cnc5c(=S)[nH]c(N)nc54)C3O2)nn1C (some centres unmarked) [06D-14]	promising	–	–
NCCCCCCNc1nc2c(ncn2[C@@H]2O[C@H](CO)[C@@H](O)[C@H]2O)c(=O)[nH]1 [V2, N-2-(6″-Aminohexyl)-guanosine]	–	not able to induce apoptosis	–
CC(=O)NCCCCCCNc1nc(O)c2ncn([C@@H]3O[C@H](COC(C)=O)C(OC(C)=O)C3OC(C)=O)c2n1 (some centres unmarked) [V3, 2′,3′,5′,o-Triacetyl-N-2-(Acetyl-6″-aminohexyl)-guanosine]	–	not able to induce apoptosis	solubility in water (Solubility in water): not soluble in water
CC(=O)OC[C@H]1O[C@@H](n2cnc3c(S)nc(NCCCCCCNC(C)=S)nc32)C(OC(C)=O)C1OC(C)=O (some centres unmarked) [V4, 2′,3′,5′-Triacetyl-N-2-(6″-thioacetamide-hexyl)-6-Thioguanosine]	–	not able to induce apoptosis	solubility in water (Solubility in water): not soluble in water
Aspartate-2,3′-EDA-6-Thio-GTP [05B-1]	less effective than 05B-0	–	–
TAMRA-EDA-6-Thio-GTP [V5]	–	able to induce apoptosis	induction of apoptosis compared with azathioprine or 6-mercaptopurine mediated induction (human CD4+ T Lymphocytes): more pronounced and appeared earlier
